Assays:
K562 cells = experiment: Leukemia cell proliferation, K562; assay type: cell-based; conditions: 72 hrs
Procedure: 2,000 cells from indicated NSLC cell lines were seeded into each well of 96-well plates. Cell viability was measured 3 days post-treatment using MTT assays following manufacturer's instruction. For cell viability assays with inhibitor treatment, 2,000 cells from indicated NSLC and HEK293 cell lines were seeded in 96-well plate. Inhibitor was added the next day at indicated concentration and cell viability was measured after 3-day treatment. For cell proliferation assays in THP1, K562 and HL60 cell lines, 1×10^6 cells from each indicated cell line were seeded in 12.5 cm2 cell culture flask and cells were counted by hemocytometer under microscope at indicated time to monitor cell proliferation. To test inhibitor effects on THP1, K562 and HL60 cell growth, 2×10^5 cells were seeded in 12.5 cm2 cell culture flask. Inhibitor was added the next day at indicated concentrations and cell number was counted after 3 days treatment. Three independent experiments were performed to generate error bars.

OTUD7B = biological target: T1, OTUD7B (Homo sapiens, UniProt Q6GQQ9); experiment: Ubiquitin-AMC assay, OTUD7B; assay type: biochemical; conditions: 50 μM 7Bi, 300 nM OTUD7B, 2 uM ubiquitin-AMC
T1 construct: OTUD7B (residues 56-446); GST (N, cleaved yes); made in house; host or cells: E. coli BL21-Codon Plus (DE3)-RIL
T1 sequence (Q6GQQ9 56-446): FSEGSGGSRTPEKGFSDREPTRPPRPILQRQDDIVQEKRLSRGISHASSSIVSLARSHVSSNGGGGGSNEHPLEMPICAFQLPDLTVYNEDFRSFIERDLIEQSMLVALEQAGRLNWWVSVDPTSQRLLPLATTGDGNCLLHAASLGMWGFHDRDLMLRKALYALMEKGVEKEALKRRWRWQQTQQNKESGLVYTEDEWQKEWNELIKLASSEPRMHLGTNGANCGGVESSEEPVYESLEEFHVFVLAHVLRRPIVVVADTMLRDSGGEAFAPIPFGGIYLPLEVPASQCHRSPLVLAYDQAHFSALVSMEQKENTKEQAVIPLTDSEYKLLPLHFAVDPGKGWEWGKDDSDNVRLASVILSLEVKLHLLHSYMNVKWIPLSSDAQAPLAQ
Procedure: 50 μM 7Bi were incubated with 300 nM OTUD7B (residues 56-446), 10 μM OTUD7A (residues 1-462), 200 nM USP21 (residues 196-565), or 500 nM USP9X (residues 1551-1970) in reaction buffer (20 mM HEPES pH=8.0, 200 mM NaCl, 0.25 mg/mL BSA and 0.005% Tween-20) for 5 min at room temperature. Then, 2 uM ubiquitin-AMC was added to start the reaction. The fluorescence emission data was collected at an excitation wavelength of 355 nm and emission wavelength of 460 nm every 3 min. Reactions were completed three times to generate the error bars.

USP9X = biological target: T2, USP9X (Homo sapiens, UniProt Q93008); experiment: In vitro USP9X deubiquitination assay, K11-linked di-ub cleavage; assay type: biochemical
T2 construct: USP9X (residues 1551-1970); GST (N, cleaved yes); made in house; host or cells: E. coli BL21-Codon Plus (DE3)-RIL
T2 sequence (Q93008 1551-1970): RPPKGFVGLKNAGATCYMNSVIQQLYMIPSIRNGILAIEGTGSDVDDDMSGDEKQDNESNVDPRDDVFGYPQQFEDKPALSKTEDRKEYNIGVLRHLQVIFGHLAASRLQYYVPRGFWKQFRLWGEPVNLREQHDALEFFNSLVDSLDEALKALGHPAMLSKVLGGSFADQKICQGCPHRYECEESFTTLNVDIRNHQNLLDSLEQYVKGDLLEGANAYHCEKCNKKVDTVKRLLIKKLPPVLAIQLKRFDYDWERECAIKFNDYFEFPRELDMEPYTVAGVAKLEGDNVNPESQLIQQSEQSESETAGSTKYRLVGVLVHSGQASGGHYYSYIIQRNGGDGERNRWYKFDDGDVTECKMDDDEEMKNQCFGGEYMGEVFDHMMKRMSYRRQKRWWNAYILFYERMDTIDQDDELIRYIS
Text: OTUD7B (residues 56-446), OTUD7A (residues 1-462), USP21 (residues 196-565), and USP9X (residues 1551-1970) proteins were expressed in E. Coli BL21-Codon Plus (DE3)-RIL cells. Through an N-terminal GST tag, the DUBs were purified by affinity chromatography using glutathione sepharose 4B (GS4B) resin. Following the liberation of the DUB from the GST tag. the DUBs were subjected to size exclusion chromatography (SEC). To form the K11-linked di-ub, individual ubiquitins (K11R-substituted donor Ub and ΔGG acceptor ubiquitin) were purified and fluorescently-labeled on an N-terminal cysteine using either Cy3- (donor) or Cy5-maleimide (acceptor). The different ubiquitins were then added to a mixture containing UBA1, UBE2S, and MgATP to form di-ub. After an overnight incubation at room temperature, UBE2S was removed by cation-exchange chromatography and the di-ub was purified by SEC. These proteins were used to monitor DUB activity in the presence or absence of the various inhibitors. The inhibitors were incubated with DUBs in a reaction buffer (20 mM Hepes pH=8.0, 200 mM NaCl, 0.25 mg/mL BSA and 0.005% Tween-20) for 5 min at room temperature and then 0.5 uM fluorescently-labeled di-ub (K11-linked) was added to start the reaction. 5×SDS-PAGE loading buffer was used to quench the reaction at the indicated time point. […] Mono-ubiquitin was quantified to generate an IC50 value. […]

inhibition of USP9X (USP9X): failed to inhibit
SMILES: Cc1cc(NC(=O)c2cnn(C)c2C(=O)Nc2cc(C)nn2C2CCCC2)n(C2CCCC2)n1 [7Bi]
cell proliferation (K562 cells): reduced proliferation
inhibition of hydrolysis of ubiquitin-AMC by OTUD7B (OTUD7B): efficiently inhibited hydrolysis of ubiquitin-AMC
